Data set [1] can be described thus: Inhibitory activity against the growth of SSC15 human squamous carcinoma cells; value ranges from 20-60. The format is functional.
In a further data set the test system is L1210. Put plainly: Inhibitory activity against the growth of murine L1210 leukemia cells; value ranges from 20-60. The conditions noted are these: Mus musculus. Format: functional, cell-based.
The subject of the next data set is CCRF-CEM. Kind of data set: Inhibitory activity against the growth of CEM human leukoblast cells; value ranges from 20-60. Format: functional, cell-based.
For data set [2], the target named is T1, Folylpolyglutamate synthase, mitochondrial (Mus musculus) (UniProt P48760).
T1 sequence (whole entry): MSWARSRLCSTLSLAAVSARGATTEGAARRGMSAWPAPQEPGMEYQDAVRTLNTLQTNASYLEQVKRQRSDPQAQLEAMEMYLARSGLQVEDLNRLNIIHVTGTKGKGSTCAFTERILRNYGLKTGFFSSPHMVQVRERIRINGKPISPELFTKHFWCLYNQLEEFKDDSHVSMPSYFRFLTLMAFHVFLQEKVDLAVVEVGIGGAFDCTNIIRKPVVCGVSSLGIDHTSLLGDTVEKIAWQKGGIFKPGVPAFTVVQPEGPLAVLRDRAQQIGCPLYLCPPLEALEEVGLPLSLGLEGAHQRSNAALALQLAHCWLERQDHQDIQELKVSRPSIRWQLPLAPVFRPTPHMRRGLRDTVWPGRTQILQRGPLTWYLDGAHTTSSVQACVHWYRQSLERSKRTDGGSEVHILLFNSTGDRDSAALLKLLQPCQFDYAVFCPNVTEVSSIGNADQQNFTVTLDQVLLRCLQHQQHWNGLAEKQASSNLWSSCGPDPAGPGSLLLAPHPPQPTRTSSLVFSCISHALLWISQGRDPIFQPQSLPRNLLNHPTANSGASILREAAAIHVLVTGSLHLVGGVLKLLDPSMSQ
Put plainly: (§1) The apparent Km of compound as a substrate for partially purified mouse liver Folyl-polyglutamate synthase.

Substrate in data set [3]: Nc1nc(N)c2nc(CNc3ccc(C(=O)N[C@@H](CCC(=O)O)C(=O)O)cc3)cnc2n1
Described as §1.

Substrate in data set [4]: Nc1nc(O)c2c(n1)NCC(CNc1ccc(C(=O)N[C@@H](CCC(=O)O)C(=O)O)cc1)N2
Described as §1.

Substrate in data set [5]: Nc1nc(O)c2c(n1)CCC(CCc1ccc(C(=O)NC(CCC(=O)O)C(=O)O)cc1)C2
Described as §1.

Broadly, the IC50 is the concentration needed to halve the response being measured. Consider `Nc1nc(O)c2cc(CCc3ccc(C(=O)N[C@@H](CCC(=O)O)C(=O)O)cc3)cnc2n1`, for which the half-inhibitory concentration (IC50) (in data set [1]; in the data set on L1210; with CCRF-CEM) was 60 nM in each case.

Turning to `NCCCC(NC(=O)c1ccc(CCC2CCc3nc(N)nc(O)c3C2)cc1)C(=O)O` (configuration not stated), the Kis in data set [2] came out at 10.1 µM.

B1: Folylpolyglutamate synthase, mitochondrial (Mus musculus), P48760 (protein)
chain: T1 sequence (whole entry)
Broadly, the Km is the substrate concentration at which the rate is half of its maximum. With B1, the Km in data set [3] worked out at 20 µM; in data set [4] it was 8 µM; in data set [5], 1.54 µM.

These data come from ChEMBL document CHEMBL1124432, “(6R,6S)-5,8,10-trideaza-5,6,7,8-tetrahydrofolate and 6(R,6S)-5,8,10-trideaza-5,6,7,8-tetrahydropteroyl-L-ornithine as potential antifolates and antitumor agents” (J Med Chem, 1989).
